# Data from patent US6413907B2, “Herbicidal composition” (Syngenta Crop Protection, Inc., priority 1999, dated 2002).
# What was measured:
# Format in all cases: in vivo
# Ipomoea = test: Pre-emergence test, greenhouse; conditions: terbutylazin 200 g/ha, after 26 days
# From the text: (§1) A synergistic effect is always obtained when the herbicidal action of the combination of compound I and 2.1 to 2.33 is greater than the sum of the action of the individual herbicides.
# (§2) The expected herbicidal action We for a given combination of two herbicides can be calculated as follows (q.v. COLBY, S. R., “Calculating synergistic and antagonistic response of herbicide combinations”, Weeds 15, pages 20-22, 1967):
# (§3) If the value actually observed is higher than the expected value We, then there is synergism.
# (§4) The test plants are sown in plastic pots in standard soil under greenhouse conditions. Directly after sowing, the test substances are applied in an aqueous suspension (500 l water/ha). The test plants are then further cultivated in the greenhouse under optimum conditions. The rates of application depend on the optimum dosages determined under field conditions and greenhouse conditions. Evaluation of the tests is made after 26 days (% activity, 100% plant perished, 0%=no phytotoxic effect).
# Xanthium = test: Pre-emergence test, greenhouse; conditions: terbutylazin 200 g/ha, after 26 days
# From the text: as §1, §2, §3, §4
# Polygonum = test: Pre-emergence test, greenhouse; conditions: terbutylazin 200 g/ha, after 26 days
# From the text: as §1, §2, §3, §4
# Convolvulus = test: Pre-emergence test, greenhouse; conditions: terbutylazin 200 g/ha, after 26 days
# From the text: as §1, §2, §3, §4
# maize Dk 261 = test: Postemergence test, greenhouse; conditions: halosulfuron 100 g/ha, after 20 days
# From the text: as §1, §2, §3
# (§5) The test plants are grown under greenhouse conditions in plastic pots until reaching the 2-3 leaf stage. Standard soil is used, as the substrate for cultivation. At the 2-3 leaf stage, the herbicides are applied to the test plants on their own and in a mixture. Application is effected in the form of an aqueous suspension of the test substances in 500 1 water/ha. The rates of application depend on the optimum dosages determined under field conditions and greenhouse conditions. Evaluation of the tests is made after 20 days (% activity, 100%=plant perished, 0%=no phytotoxic effect).
# Digitaria = test: Postemergence test, greenhouse; conditions: halosulfuron 100 g/ha, after 20 days
# From the text: as §1, §2, §3, §5
SMILES,% activity (herbicidal action) (Ipomoea) [%],% activity (herbicidal action) (Xanthium) [%],% activity (herbicidal action) (Polygonum) [%],% activity (herbicidal action) (Convolvulus) [%],% activity (herbicidal action) (maize Dk 261) [%],% activity (herbicidal action) (Digitaria) [%]
CCNc1nc(Cl)nc(NC(C)(C)C)n1 [terbutylazin],30,0,60,80,,
COc1cc(OC)nc(NC(=O)NS(=O)(=O)c2c(C(=O)O)c(Cl)nn2C)n1 [halosulfuron],,,,,5,25
